Literature values as cited in patent US20090048319A1, “Method of Using a Micronutrient as Safener for a Triazole for Controlling Harmful Fungi” (priority 2006, published 2009).

System: wheat
Settings: in vivo

## CC1(C)CC/C(=C\c2ccc(Cl)cc2)C1(O)Cn1cncn1 (stereo not shown) [triticonazole, (5E)-5-[(4-chlorophenyl)methylene]-2,2-dimethyl-1-(1H-1,2,4-triazol-1-ylmethyl)cyclopentanol]
  negative effect on plant growth: strongly reduced longitudinal growth
